Measurements taken from US20170190671A1, “BIS(ARYL)CATECHOL DERIVATIVES AS HERBICIDES” (E I DU PONT DE NEMOURS AND COMPANY, priority 2014, published 2017).

Tests used:
Assay in all cases: Test D preemergence
Format in all cases: in vivo
Details in all cases: scale 0 to 100
[1] = test system: Russian thistle (Salsola kali)
Summary of the method: (§1)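 Visual injury scored 0–100 (0 = no effect, 100 = complete control) against controls 14 to 21 days after treatment in a controlled growth environment. Compounds were applied in surfactant-containing non-phytotoxic solvent, preemergence onto silt loam-sown seeds or postemergence onto 1- to 4-leaf plants.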

[2] = test system: bluegrass (annual bluegrass, Poa annua)
Summary of the method: as §1

[3] = test system: canarygrass (Phalaris minor)
Summary of the method: as §1

[4] = test system: chamomile (scentless chamomile, Matricaria inodora)
Summary of the method: as §1

[5] = test system: chickweed (common chickweed, Stellaria media)
Summary of the method: as §1

[6] = test system: deadnettle (henbit deadnettle, Lamium amplexicaule)
Summary of the method: as §1

[7] = test system: downy bromegrass (Bromus tectorum)
Summary of the method: as §1

[8] = test system: field poppy (Papaver rhoeas)
Summary of the method: as §1

[9] = test system: field violet (Viola arvensis)
Summary of the method: as §1

[10] = test system: galium (catchweed bedstraw, Galium aparine)
Summary of the method: as §1

[11] = test system: oilseed rape (Brassica napus)
Summary of the method: as §1

[12] = test system: speedwell (bird's-eye speedwell, Veronica persica)
Summary of the method: as §1

[13] = test system: spring barley (Hordeum vulgare)
Summary of the method: as §1

[14] = test system: wild buckwheat (Polygonum convolvulus)
Summary of the method: as §1

[15] = test system: wild mustard (Sinapis arvensis)
Summary of the method: as §1

[16] = test system: windgrass (Apera spica-venti)
Summary of the method: as §1

[17] = test system: winter barley (Hordeum vulgare)
Summary of the method: as §1

[18] = test system: winter wheat (Triticum aestivum)
Summary of the method: as §1

FC(F)(F)c1cnc(Oc2c(Br)cccc2Oc2ncc(Cl)cn2)nc1 [Compound 24]
Plant response rating, Russian Thistle ([1]; 16 g ai/ha): 0 | Plant response rating, Russian Thistle ([1]; 31 g ai/ha): 0 | Plant response rating, Russian Thistle ([1]; 62 g ai/ha): 35 | Plant response rating, Russian Thistle ([1]; 125 g ai/ha): 80 | Plant response rating, Bluegrass ([2]; 16 g ai/ha): 15 | Plant response rating, Bluegrass ([2]; 31 g ai/ha): 20 | Plant response rating, Bluegrass ([2]; 62 g ai/ha): 25 | Plant response rating, Bluegrass ([2]; 125 g ai/ha): 35 | Plant response rating, Canarygrass ([3]; 16 g ai/ha): 25 | Plant response rating, Canarygrass ([3]; 31 g ai/ha): 30 | Plant response rating, Canarygrass ([3]; 62 g ai/ha): 35 | Plant response rating, Canarygrass ([3]; 125 g ai/ha): 45 | Plant response rating, Chamomile ([4]; 16 g ai/ha): 55 | Plant response rating, Chamomile ([4]; 31 g ai/ha): 100 | Plant response rating, Chamomile ([4]; 62 g ai/ha): 100 | Plant response rating, Chamomile ([4]; 125 g ai/ha): 100 | Plant response rating, Chickweed ([5]; 16 g ai/ha): 10 | Plant response rating, Chickweed ([5]; 31 g ai/ha): 100 | Plant response rating, Chickweed ([5]; 62 g ai/ha): 100 | Plant response rating, Chickweed ([5]; 125 g ai/ha): 100 | Plant response rating, Deadnettle ([6]; 16 g ai/ha): 30 | Plant response rating, Deadnettle ([6]; 31 g ai/ha): 60 | Plant response rating, Deadnettle ([6]; 62 g ai/ha): 100 | Plant response rating, Deadnettle ([6]; 125 g ai/ha): 100 | Plant response rating, Bromegrass, Downy ([7]; 16 g ai/ha): 20 | Plant response rating, Bromegrass, Downy ([7]; 31 g ai/ha): 35 | Plant response rating, Bromegrass, Downy ([7]; 62 g ai/ha): 35 | Plant response rating, Bromegrass, Downy ([7]; 125 g ai/ha): 45 | Plant response rating, Field Poppy ([8]; 16 g ai/ha): 75 | Plant response rating, Field Poppy ([8]; 31 g ai/ha): 100 | Plant response rating, Field Poppy ([8]; 62 g ai/ha): 100 | Plant response rating, Field Poppy ([8]; 125 g ai/ha): 100 | Plant response rating, Field Violet ([9]; 16 g ai/ha): 20 | Plant response rating, Field Violet ([9]; 31 g ai/ha): 20 | Plant response rating, Field Violet ([9]; 62 g ai/ha): 75 | Plant response rating, Field Violet ([9]; 125 g ai/ha): 100 | Plant response rating, Galium ([10]; 16 g ai/ha): 0 | Plant response rating, Galium ([10]; 31 g ai/ha): 25 | Plant response rating, Galium ([10]; 62 g ai/ha): 85 | Plant response rating, Galium ([10]; 125 g ai/ha): 70 | Plant response rating, Oilseed Rape ([11]; 16 g ai/ha): 0 | Plant response rating, Oilseed Rape ([11]; 31 g ai/ha): 15 | Plant response rating, Oilseed Rape ([11]; 62 g ai/ha): 20 | Plant response rating, Oilseed Rape ([11]; 125 g ai/ha): 80 | Plant response rating, Speedwell ([12]; 16 g ai/ha): 35 | Plant response rating, Speedwell ([12]; 31 g ai/ha): 100 | Plant response rating, Speedwell ([12]; 62 g ai/ha): 100 | Plant response rating, Speedwell ([12]; 125 g ai/ha): 100 | Plant response rating, Barley, Spring ([13]; 16 g ai/ha): 0 | Plant response rating, Barley, Spring ([13]; 31 g ai/ha): 20 | Plant response rating, Barley, Spring ([13]; 62 g ai/ha): 30 | Plant response rating, Barley, Spring ([13]; 125 g ai/ha): 85 | Plant response rating, Buckwheat, Wild ([14]; 16 g ai/ha): 10 | Plant response rating, Buckwheat, Wild ([14]; 62 g ai/ha): 20 | Plant response rating, Buckwheat, Wild ([14]; 125 g ai/ha): 100 | Plant response rating, Mustard, Wild ([15]; 16 g ai/ha): 15 | Plant response rating, Mustard, Wild ([15]; 31 g ai/ha): 35 | Plant response rating, Mustard, Wild ([15]; 62 g ai/ha): 55 | Plant response rating, Mustard, Wild ([15]; 125 g ai/ha): 100 | Plant response rating, Windgrass ([16]; 16 g ai/ha): 5 | Plant response rating, Windgrass ([16]; 31 g ai/ha): 15 | Plant response rating, Windgrass ([16]; 62 g ai/ha): 25 | Plant response rating, Windgrass ([16]; 125 g ai/ha): 85 | Plant response rating, Barley, Winter ([17]; 16 g ai/ha): 10 | Plant response rating, Barley, Winter ([17]; 31 g ai/ha): 15 | Plant response rating, Barley, Winter ([17]; 62 g ai/ha): 25 | Plant response rating, Barley, Winter ([17]; 125 g ai/ha): 70 | Plant response rating, Wheat, Winter ([18]; 16 g ai/ha): 0 | Plant response rating, Wheat, Winter ([18]; 31 g ai/ha): 0 | Plant response rating, Wheat, Winter ([18]; 62 g ai/ha): 0 | Plant response rating, Wheat, Winter ([18]; 125 g ai/ha): 10
